# In patent US7985774B2, “Use of 3,5-seco-4-nor-cholestane derivatives for obtaining a cytoprotective drug” (Trophos, priority 2006, dated 2011):
# Assays:
# [1] = tested on: CD1 mice; test: Acute hepatotoxicity: intoxication by Jo2 anti-Fas antibody and assaying ALATs; assay type: in vivo; conditions: blood 24 hrs after Jo2, control 2,860 ± 382
# Excerpt: An acute model of hepatic damage may be induced by a single injection of the Jo2 anti-Fas antibody (Ogasawara et al., Nature, August 1993), producing severe hepatic damages and resembling viral, auto-immune or drug-induced hepatitis.
# Alanine Aminotransferase (ALAT) also called Serum Glutamic Pyruvic Transaminase (SGPT) is an enzyme present in hepatocytes.
# Male adult CD1 mice from the breeder “Elevage Janvier”, (Le Genest-Saint-Isle, France) were used. The animals were identified individually and had free access to water and food.
# A stock solution of monoclonal hamster anti-mouse CD95 (Fas) antibody, called Jo2, from Pharmingen (BD Biosciences, ref. 554254 batch 32699) is prepared at a concentration of 1 mg/mL in water. The dilutions used are made in 0.9% sodium chloride in water.
# The desired amount of 3,5-seco-4-nor-cholestan-5-one oxime-3-ol is weighed and milled into a fine powder, and then mixed with Cremophore EL (Sigma C5135) and absolute ethanol (Carlo Erba RPE 41571) (5% and 10% of the final volume, respectively). After complete dissolution, 0.9% sodium chloride in water is added extemporaneously (85% of the final volume).
# Pretreatment with 3,5-seco-4-nor-cholestan-5-one oxime-3-ol is carried out with dosages of 10 and 30 mg/kg by intraperitoneal administration 1 hr before administering the Jo2 antibody. […]
# [2] = tested on: C57BL6 mice; test: In vivo model of myocardium infarction (coronary occlusion-reperfusion)
# Description: The purpose of this experiment is to study in vivo the cardioprotective properties of the compounds, 3,5-seco-4-nor-cholestan-5-one oxime-3-ol and 3,5-seco-4-nor-cholestan-5-one oxime-3-N,N-dimethylglycine ester, in a murine coronary occlusion-reperfusion model.
# The compounds to be tested are administered intravenously in mice, 5 minutes before reperfusion of the myocardium ischemiated beforehand. As controls, carriers of the compounds beta-cyclodextrin (hereafter called βCD) and water, respectively, are administered under the same conditions as for the compounds.
# In order to determine the effect of the tested compounds, the size of the infarction is measured after 24 hour reperfusion.
# 6-8 week old male C57BL6 mice are anaesthetized with sodium pentobarbital (50 mg/kg i.p.) and are ventilated after intubation with an O2/CO2 (95%/5%) mixture throughout the experiment. The surface electrocardiogram (ECG) is recorded and viewed on an oscilloscope all along surgery. Under strict asepsis conditions, the jugular vein is catheterized for intravenous administration of the compounds. A left lateral thoracotomy is performed and after pericardiotomy, a major branch of the left coronary artery is localized in the latero-posterior region of the left ventricle. A prolene no. 8 suture is positioned around this artery so as to form a mobile loop for making a temporary coronary occlusion.
# All the mice were subject to a 30 minute temporary coronary occlusion. Ischemia of the myocardium region is confirmed by cyanosis of the myocardium surface and a deviation of the ST segment of the electrocardiogram.
# Each of the compounds (treated group, n=10) or its solvent (control group, n=10) was administered as a bolus intravenously, 5 min before lifting the 30 minutes of coronary occlusion.
# 3,5-seco-4-nor-cholestan-5-one oxime-3-ol, dissolved beforehand to a final concentration of 0.46 mg/ml in a 30% βCD solution in phosphate buffer prepared by saturation followed by centrifugation, is administered at a dosage of 1 mg/kg.
# 3,5-seco-4-nor-cholestan-5-one oxime-3-N,N-dimethylglycine ester, dissolved beforehand to a final concentration of 1.56 mg/ml in sterile water by stirring and sonication, is administered at a dosage of 3.9 mg/kg.
# The same volume of carrier is administered in the corresponding control groups.
# Twenty four hours after the end of coronary occlusion, the mice are re-anaesthetized with sodium pentobarbital (50 mg/kg i.p.) and heparin is administered intravenously (Choay© heparin 1,000 IU/kg). A ligature of the coronary artery is achieved at the same location having been subject to the first occlusion 24 h previously. The mice are then euthanized with a lethal saturated dose of potassium chloride and their heart is rapidly excised and then mounted through the aorta artery on a retrograde perfusion system of the Langendorff type.
# A 5% Evans blue solution is perfused retrogradely so that the healthy myocardium is colored in blue; the area made ischemic during the coronary occlusion, or <<area of risk AR>> remaining uncolored by default.
# The left ventricle is then cut out into 5 slices with equal thicknesses (1 mm) by means of a slicer specially designed for hearts of mice (Les Isolants de Paris, Palaiseau), which are then weighed.
# These slices are incubated in a 1% triphenyltetrazolium chloride solution (TTC, Sigma, Poole, UK) at pH 7.4 for 20 min at 37° C. and then set in 4% formol. TTC has the property of coloring the non-infarcted myocardium in red, and so showing the infarcted areas in white. Each heart slice is placed under a stereo microscope for taking a high definition digital photograph.
# Quantification of infarction and the area of risk is carried out by planimetry (Scion Image, Scion, Frederick Md., USA) and referred to the weight of each slice.
# The area of risk (non-blue area) is expressed as a percentage of the weight of the left ventricle. The infarction sizes are expressed as a percentage of the weight of the area of risk. […]
# [3] = 1 mg/kg i.v. bolus in βCD 5 min before reperfusion, 30 min occlusion, 24 h reperfusion, mean±SEM
structure (smiles),measurement,setting,value
"CC(C)CCC[C@@H](C)[C@H]1CC[C@H]2[C@@H]3CC/C(=N\O)[C@](C)(CCCO)[C@H]3CC[C@]12C [3,5-seco-4-nor-cholestan-5-one oxime-3-ol]",ALAT activity Average +/− SEM,[1]; 10 mg/kg i.p. 1 hr before Jo2 125 μg/kg i.p.,511 ± 140 U/L
same,ALAT activity Average +/− SEM,[1]; 30 mg/kg i.p. 1 hr before Jo2 125 μg/kg i.p.,533 ± 150 U/L
same,Area of risk (percentage of the weight of the left ventricle),[2]; [3],9 +/− 4%
same,Infarction size (percentage of the weight of the area of risk),[2]; [3],21 +/− 7%
same,Infarction size reduction,"[2]; 1 mg/kg i.v., versus carrier (βCD)",36.4%
